Measurements: publication PMC6044503 (ACS Omega, 2017)
pEC50, pIC50: −log10 of the molar value. Where a SMILES comes first, the peptide text is derived from it. [ ]: non-standard residue; d: D form. The star is where a group is joined. Phe(4-F) = N[C@@H](Cc1ccc(F)cc1)C(=O)O; 2Nal = N[C@@H](Cc1ccc2ccccc2c1)C(=O)O; Cyclohexanecarbonyl = O=C(C1CCCCC1)*; Cha = N[C@@H](CC1CCCCC1)C(=O)O; 4Amb = NCc1ccc(C(=O)O)cc1; Isobutyryl = CC(C)C(=O)*; Aib = CC(C)(N)C(=O)O; Bz = O=C(c1ccccc1)*

Columns and labels:
[1] = Stability in 20% mouse serum/PBS; type: in vitro ADME; conditions: for remaining at 0.5 h: mouse, 20% mouse serum in PBS
human Y2R [2] = target: T1, human Y2R (Homo sapiens, UniProt P49146); experiment: biochemical; type: biochemical
T1 sequence (P49146 1-381): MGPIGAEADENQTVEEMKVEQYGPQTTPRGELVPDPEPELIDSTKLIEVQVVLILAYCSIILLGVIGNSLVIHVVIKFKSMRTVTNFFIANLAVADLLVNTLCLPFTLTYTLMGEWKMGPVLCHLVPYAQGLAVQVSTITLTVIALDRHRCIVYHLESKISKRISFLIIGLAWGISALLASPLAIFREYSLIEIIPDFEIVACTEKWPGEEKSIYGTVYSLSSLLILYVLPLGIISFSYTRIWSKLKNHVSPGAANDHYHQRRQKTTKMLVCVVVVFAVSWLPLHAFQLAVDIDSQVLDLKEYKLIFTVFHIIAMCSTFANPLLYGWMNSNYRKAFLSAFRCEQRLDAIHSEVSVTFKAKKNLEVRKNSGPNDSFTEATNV

human Y2R [3] = target: T1, human Y2R; experiment: biochemical; type: binding
male C57BL/6J mice = experiment: Food intake assay, bolus ip administration in lean mice; type: in vivo, mouse; conditions: 3 h after administration, vs saline, mean ± SD

Compound	remaining at 0.5 h [1] [%]	pEC50 (human Y2R [2])	pIC50 (human Y2R [3])	% food intake inhibition (male C57BL/6J mice; bolus ip 2000 nmol/kg) [%]	% food intake inhibition (male C57BL/6J mice; bolus ip 1000 nmol/kg) [%]	metabolites in mouse serum ([1]; within 30 min in 20% mouse serum/PBS)	% food intake inhibition (male C57BL/6J mice; bolus ip 250 nmol/kg) [%]	% food intake inhibition (male C57BL/6J mice; bolus ip 500 nmol/kg) [%]
CC[C@H](C)[C@H](NC(=O)[C@H](Cc1ccc(O)cc1)NC(=O)[C@H](C)NC(=O)[C@H](CCCNC(=N)N)NC(=O)c1ccccc1)C(=O)N[C@@H](CC(N)=O)C(=O)N[C@@H](CC(C)C)C(=O)N[C@H](C(=O)N[C@H](C(=O)N[C@@H](CCCNC(=N)N)C(=O)N[C@@H](CCC(N)=O)C(=O)N[C@@H](CCCNC(=N)N)C(=O)N[C@@H](Cc1ccc(O)cc1)C(N)=O)[C@@H](C)O)[C@@H](C)CC [Compound 1, benzoyl-[Ala^26,Ile^28,31]PYY(25–36)] (Bz-RAYINLITRQRY-NH2)	5	8.77	7.80	25 ± 7				
CC[C@H](C)[C@H](NC(=O)[C@H](Cc1ccc(O)cc1)NC(=O)[C@H](C)NC(=O)[C@H](CCCNC(=N)N)NC(=O)c1ccccc1)C(=O)N[C@@H](CC(N)=O)C(=O)N[C@@H](CC(C)C)C(=O)N[C@H](C(=O)N[C@H](C(=O)N[C@@H](CCCNC(=N)N)C(=O)N[C@@H](CCC(N)=O)C(=O)N[C@@H](CCCNC(=N)N)C(=O)N[C@@H](CC1CCCCC1)C(N)=O)[C@@H](C)O)[C@@H](C)CC [Compound 2] (Bz-RAYINLITRQR[Cha]-NH2)	53	8.96	8.49	21 ± 5				
CC[C@H](C)[C@H](NC(=O)[C@H](CC1CCCCC1)NC(=O)[C@H](Cc1c[nH]cn1)NC(=O)[C@H](CCCNC(=N)N)NC(=O)c1ccccc1)C(=O)N[C@@H](CC(N)=O)C(=O)N[C@@H](CC(C)C)C(=O)N[C@H](C(=O)N[C@H](C(=O)N[C@@H](CCCNC(=N)N)C(=O)N[C@@H](CCC(N)=O)C(=O)N[C@@H](CCCNC(=N)N)C(=O)N[C@@H](Cc1ccc(O)cc1)C(N)=O)[C@@H](C)O)[C@@H](C)CC [Compound 3] (Bz-RH[Cha]INLITRQRY-NH2)	10	8.72	7.82	39 ± 7	17 ± 7			
CC[C@H](C)[C@H](NC(=O)[C@H](CC1CCCCC1)NC(=O)[C@H](Cc1c[nH]cn1)NC(=O)[C@H](CCCNC(=N)N)NC(=O)c1ccccc1)C(=O)N[C@@H](CC(N)=O)C(=O)N[C@@H](CC(C)C)C(=O)N[C@H](C(=O)N[C@H](C(=O)N[C@@H](CCCNC(=N)N)C(=O)N[C@@H](CCC(N)=O)C(=O)N[C@@H](CCCNC(=N)N)C(=O)N[C@@H](CC1CCCCC1)C(N)=O)[C@@H](C)O)[C@@H](C)CC [Compound 4] (Bz-RH[Cha]INLITRQR[Cha]-NH2)	102	8.44	8.14		34 ± 6	did not yield any apparent metabolites		
CC[C@H](C)[C@H](NC(=O)[C@H](CC1CCCCC1)NC(=O)[C@H](Cc1c[nH]cn1)NC(=O)[C@H](CCCNC(=N)N)NC(=O)c1ccccc1)C(=O)N[C@@H](CC(N)=O)C(=O)N[C@@H](Cc1c[nH]c2ccccc12)C(=O)N[C@H](C(=O)N[C@H](C(=O)N[C@@H](CCCNC(=N)N)C(=O)N[C@@H](CCC(N)=O)C(=O)N[C@@H](CCCNC(=N)N)C(=O)N[C@@H](CC1CCCCC1)C(N)=O)[C@@H](C)O)[C@@H](C)CC [Compound 5] (Bz-RH[Cha]INWITRQR[Cha]-NH2)	93	8.64	8.01	65 ± 5	40 ± 2		10 ± 4	8 ± 7
CC[C@H](C)[C@H](NC(=O)[C@H](CC1CCCCC1)NC(=O)[C@H](Cc1c[nH]cn1)NC(=O)[C@H](CCCNC(=N)N)NC(=O)c1ccccc1)C(=O)N[C@@H](CC(N)=O)C(=O)N[C@@H](Cc1ccc(F)cc1)C(=O)N[C@H](C(=O)N[C@H](C(=O)N[C@@H](CCCNC(=N)N)C(=O)N[C@@H](CCC(N)=O)C(=O)N[C@@H](CCCNC(=N)N)C(=O)N[C@@H](CC1CCCCC1)C(N)=O)[C@@H](C)O)[C@@H](C)CC [Compound 6] (Bz-RH[Cha]IN[Phe(4-F)]ITRQR[Cha]-NH2)	96	8.54	7.96		40 ± 5			18 ± 5
CC(C)C[C@H](NC(=O)[C@H](CC(N)=O)NC(=O)[C@H](CC1CCCCC1)NC(=O)[C@H](CC1CCCCC1)NC(=O)[C@H](Cc1c[nH]cn1)NC(=O)[C@H](CCCNC(=N)N)NC(=O)C(C)C)C(=O)NC(C)(C)C(=O)N[C@H](C(=O)N[C@@H](CCCNC(=N)N)C(=O)N[C@@H](CCC(N)=O)C(=O)N[C@@H](CCCNC(=N)N)C(=O)N[C@@H](CC1CCCCC1)C(N)=O)[C@@H](C)O [Compound 23] (Isobutyryl-RH[Cha][Cha]NL[Aib]TRQR[Cha]-NH2)		8.92	8.51				14 ± 7	20 ± 11
CC(C)C[C@H](NC(=O)[C@H](CC(N)=O)NC(=O)[C@H](CC1CCCCC1)NC(=O)[C@H](CC1CCCCC1)NC(=O)[C@H](Cc1cnc[nH]1)NC(=O)[C@H](CCCNC(=N)N)NC(=O)c1ccc(CN)cc1)C(=O)NC(C)(C)C(=O)N[C@H](C(=O)N[C@@H](CCCNC(=N)N)C(=O)N[C@@H](CCC(N)=O)C(=O)N[C@@H](CCCNC(=N)N)C(=O)N[C@@H](CC1CCCCC1)C(N)=O)[C@@H](C)O [Compound 24] (H-[4Amb]RH[Cha][Cha]NL[Aib]TRQR[Cha]-NH2)		9.32	9.19					29 ± 7
C[C@@H](O)[C@H](NC(=O)C(C)(C)NC(=O)[C@H](Cc1c[nH]c2ccccc12)NC(=O)[C@H](CC(N)=O)NC(=O)[C@H](CC1CCCCC1)NC(=O)[C@H](CC1CCCCC1)NC(=O)[C@H](Cc1c[nH]cn1)NC(=O)[C@H](CCCNC(=N)N)NC(=O)C1CCCCC1)C(=O)N[C@@H](CCCNC(=N)N)C(=O)N[C@@H](CCC(N)=O)C(=O)N[C@@H](CCCNC(=N)N)C(=O)N[C@@H](CC1CCCCC1)C(N)=O [Compound 27] (Cyclohexanecarbonyl-RH[Cha][Cha]NW[Aib]TRQR[Cha]-NH2)		8.66	8.05					12 ± 8
C[C@@H](O)[C@H](NC(=O)C(C)(C)NC(=O)[C@H](Cc1ccc(F)cc1)NC(=O)[C@H](CC(N)=O)NC(=O)[C@H](CC1CCCCC1)NC(=O)[C@H](CC1CCCCC1)NC(=O)[C@H](Cc1c[nH]cn1)NC(=O)[C@H](CCCNC(=N)N)NC(=O)C1CCCCC1)C(=O)N[C@@H](CCCNC(=N)N)C(=O)N[C@@H](CCC(N)=O)C(=O)N[C@@H](CCCNC(=N)N)C(=O)N[C@@H](CC1CCCCC1)C(N)=O [Compound 28] (Cyclohexanecarbonyl-RH[Cha][Cha]N[Phe(4-F)][Aib]TRQR[Cha]-NH2)		8.14	7.51					21 ± 7
CC(C)C[C@H](NC(=O)[C@H](CC(N)=O)NC(=O)[C@H](CC1CCCCC1)NC(=O)[C@H](Cc1ccc2ccccc2c1)NC(=O)[C@H](Cc1c[nH]cn1)NC(=O)[C@H](CCCNC(=N)N)NC(=O)C1CCCCC1)C(=O)NC(C)(C)C(=O)N[C@H](C(=O)N[C@@H](CCCNC(=N)N)C(=O)N[C@@H](CCC(N)=O)C(=O)N[C@@H](CCCNC(=N)N)C(=O)N[C@@H](CC1CCCCC1)C(N)=O)[C@@H](C)O [Compound 29] (Cyclohexanecarbonyl-RH[2Nal][Cha]NL[Aib]TRQR[Cha]-NH2)		7.85	7.74					28 ± 8
